Measured values as given in patent EP3981864A1, “DETERGENT COMPOSITION” (priority 2020, dated 2022).

Tested on: Mycolicibacterium fortuitum αDOX (SEQ ID NO: 7), fatty acid alpha-dioxygenase, K0VMX8, N-terminal His-tag variant SEQ ID NO: 261
Experiment: Alpha-dioxygenase activity assay (oxygen consumption, TON)
Format: biochemical
Conditions: fatty acid 100 µM, enzyme 6 ppm, 50 mM HEPES pH 9.0, 37°C; initial rate of oxygen consumption / enzyme concentration
Description: Mycolicibacterium fortuitum αDOX (SEQ ID NO: 7) is a fatty acid alpha-dioxygenase that converts fatty acids into the corresponding 2-hydroperoxy fatty acids and is included as an example of the present invention. A codon optimized gene (SEQ ID NO: 260) encoding for an alpha-dioxygenase variant (SEQ ID NO: 261), including an N-terminal amino acid sequence containing a His-tag was designed and synthesized by Genscript. After gene synthesis, the protein was expressed and purified. In brief, the complete synthetic gene sequence was subcloned into a pET30a vector using the NdeI/HindIII cloning sites. For heterologous expression, Escherichia coli BL21 (DE3) cells were transformed with the recombinant plasmid and a single colony was inoculated into LB medium containing kanamycin (50 mg/L). A pre-starter culture was then inoculated into flasks containing Magic Media (Thermo Fisher, Catalog # K6803) supplemented with kanamycin (50 mg/L) and incubated at 16 °C for 72 h. At an OD600nm = 0.5 - 1.0, 5-aminolevulinic acid (final concentration 0.5 mM) was added. Cells were harvested by centrifugation at 5000 rpm and 4°C and the pellet was lysed using a bacterial cell lysis buffer (B-PER - Themo Fisher, Waltham, MA). After centrifugation, the supernatant was collected, and the protein was purified by one-step purification using HisPur™ Ni-NTA Spin Columns (Thermo Scientific, Catalog # 88226) and standard protocols known in the art. The protein was concentrated using a 10 kDa MW cutoff Amicon Ultra centrifugal filter unit (Millipore Sigma, Catalog# UFC901024), followed by desalting using a disposable PD-10 […], 500 mM NaCl, and 10% Glycerol at pH 8.0. The purified enzyme was stored at -80 °C until use.
Reactions with alpha-dioxygenases were performed as follows. […] The reaction was incubated for up to 10 minutes at 37°C with 200 rpm agitation and the conversion was monitored using an oxygen sensor. The TON (in s-1) were calculated as the ratio between the initial rate of oxygen consumption (in µM/s) and the concentration of enzyme (in µM). […]

Question: Which “Oleic Acid, TON” value does the source give for `CCCCCCCC/C=C\CCCCCCCC(=O)O` [Oleic Acid] here?
Answer: The value was 0.00 s⁻¹.

Question: With `CCCCCCCCCCCCCCCC(=O)O` [Palmitic Acid] as the compound, how does the “Palmitic Acid, TON” value read?
Answer: Its value is 0.00 s⁻¹.

Question: With `CCCCCCCCCCCCCCCCCC(=O)O` [Stearic Acid] as the compound, how does the “Stearic Acid, TON” value read?
Answer: The value was 1.66 s⁻¹.
